ChEMBL document CHEMBL5724696, “Autophagy assay results for EUbOPEN Chemogenomics Library” (2024)

How the values were obtained:
Type in all cases: functional, Homo sapiens
TERT-RPE1 = assay: (§1) Here: values are normalized to the negative (DMSO; defined as 0% autophagy induction) and positive (250nM Torin1; mTOR inhibitor; defined as maximal inducer of autophagy = 100%) control compounds and represented as % of autophagy induction. […] The impact of autophagy induction on cells is complex and depends on the affected target. As such, the magnitude of a phenotype may not be equally mirrored in the %-value of autophagy induction and vice versa. The dynamics of the induction may indicate the mode of activation: e.g. activation via phosphorylation or a signaling cascade may occur fast, while activation via transcription factors may take considerably longer. […] Of note, treatment concentrations may be sub-optimal for specific compounds, leading to false negative annotations.; details: Culturing Media DMEM/F12 (1:1), 1 % Penicillin/Streptomycin, 10% Fetal bovin serum Add-On: No, Screening Media Control DMEM/F12 (1:1), Screening Media Samples DMEM/F12 (1:1)
U2OS [1] = assay: as §1; details: Culturing Media DMEM, 1 % Penicillin/Streptomycin, 10% Fetal bovin serum Add-On: No, Screening Media Control DMEM, Screening Media Samples DMEM
U2OS [2] = assay: as §1; details: Culturing Media DMEM, 1 % Penicillin/Streptomycin, 10% Fetal bovin serum Add-On: No, Screening Media Control DMEM, Screening Media Samples DMEM; remark: listed apart in the source
[3] = Compound Concentration 0.5 uM, Timepoint 12 hours
[4] = Compound Concentration 0.5 uM, Timepoint 24 hours
[5] = Compound Concentration 0.5 uM, Timepoint 36 hours
[6] = Compound Concentration 0.5 uM, Timepoint 60 hours
[7] = Compound Concentration 2 uM, Timepoint 12 hours
[8] = Compound Concentration 2 uM, Timepoint 24 hours
[9] = Compound Concentration 2 uM, Timepoint 36 hours
[10] = Compound Concentration 2 uM, Timepoint 60 hours
[11] = Compound Concentration 10 uM, Timepoint 12 hours
[12] = Compound Concentration 10 uM, Timepoint 24 hours
[13] = Compound Concentration 10 uM, Timepoint 36 hours
[14] = Compound Concentration 10 uM, Timepoint 60 hours

Compound: CS(=O)(=O)NC[C@H]1CC[C@H](Nc2nc3c(s2)CCSc2ccccc2-3)CC1
- autophagy induction (TERT-RPE1; [3]): -4.034%
- autophagy induction (TERT-RPE1; [4]): -8.281%
- autophagy induction (TERT-RPE1; [5]): -9.381%
- autophagy induction (TERT-RPE1; [6]): -11.7228%
- autophagy induction (TERT-RPE1; [7]): -3.533%
- autophagy induction (TERT-RPE1; [8]): -4.081%
- autophagy induction (TERT-RPE1; [9]): -4.248%
- autophagy induction (TERT-RPE1; [10]): -9.574%
- autophagy induction (TERT-RPE1; [11]): -3.228%
- autophagy induction (TERT-RPE1; [12]): -1.909%
- autophagy induction (TERT-RPE1; [13]): 1.0286%
- autophagy induction (TERT-RPE1; [14]): 5.565%
- autophagy induction (U2OS [1]; [3]): -4.815%
- autophagy induction (U2OS [1]; [4]): -2.571%
- autophagy induction (U2OS [1]; [5]): -1.135%
- autophagy induction (U2OS [1]; [6]): -2.5406%
- autophagy induction (U2OS [1]; [7]): -10.1359%
- autophagy induction (U2OS [1]; [8]): -5.225%
- autophagy induction (U2OS [1]; [9]): -2.722%
- autophagy induction (U2OS [1]; [10]): -2.833%
- autophagy induction (U2OS [1]; [11]): -13.0428%
- autophagy induction (U2OS [1]; [12]): -4.43%
- autophagy induction (U2OS [1]; [13]): -4.437%
- autophagy induction (U2OS [1]; [14]): -6.0772%
- autophagy induction (U2OS [2]; [3]): 7.101%
- autophagy induction (U2OS [2]; [4]): 7.652%
- autophagy induction (U2OS [2]; [5]): 1.469%
- autophagy induction (U2OS [2]; [6]): -11.3587%
- autophagy induction (U2OS [2]; [7]): 8.098%
- autophagy induction (U2OS [2]; [8]): 3.777%
- autophagy induction (U2OS [2]; [9]): 0.6599%
- autophagy induction (U2OS [2]; [10]): -6.18%
- autophagy induction (U2OS [2]; [11]): 6.84%
- autophagy induction (U2OS [2]; [12]): 4.331%
- autophagy induction (U2OS [2]; [13]): 3.398%
- autophagy induction (U2OS [2]; [14]): 7.256%

Compound: COc1ccc(S(=O)(=O)c2cc(OC)ccc2S(=O)(=O)c2ccc([C@H](C)NS(C)(=O)=O)cc2)cc1
- autophagy induction (TERT-RPE1; [3]): -6.482%
- autophagy induction (TERT-RPE1; [4]): -9.039%
- autophagy induction (TERT-RPE1; [5]): -9.847%
- autophagy induction (TERT-RPE1; [6]): -11.3186%
- autophagy induction (TERT-RPE1; [7]): -6.676%
- autophagy induction (TERT-RPE1; [8]): -10.1921%
- autophagy induction (TERT-RPE1; [9]): -12.367%
- autophagy induction (TERT-RPE1; [10]): -10.4808%
- autophagy induction (TERT-RPE1; [11]): -5.338%
- autophagy induction (TERT-RPE1; [12]): -8.134%
- autophagy induction (TERT-RPE1; [13]): -7.872%
- autophagy induction (TERT-RPE1; [14]): -5.175%
- autophagy induction (U2OS [1]; [3]): 5.1145%
- autophagy induction (U2OS [1]; [4]): 1.212%
- autophagy induction (U2OS [1]; [5]): 0.9926%
- autophagy induction (U2OS [1]; [6]): 0.6082%
- autophagy induction (U2OS [1]; [7]): 2.687%
- autophagy induction (U2OS [1]; [8]): 1.009%
- autophagy induction (U2OS [1]; [9]): 1.125%
- autophagy induction (U2OS [1]; [10]): 0.5012%
- autophagy induction (U2OS [1]; [11]): -3.021%
- autophagy induction (U2OS [1]; [12]): -0.6189%
- autophagy induction (U2OS [1]; [13]): -0.5987%
- autophagy induction (U2OS [1]; [14]): -0.1479%
- autophagy induction (U2OS [2]; [3]): 5.054%
- autophagy induction (U2OS [2]; [4]): -4.288%
- autophagy induction (U2OS [2]; [5]): -4.858%
- autophagy induction (U2OS [2]; [6]): -2.8349%
- autophagy induction (U2OS [2]; [7]): 5.036%
- autophagy induction (U2OS [2]; [8]): -1.126%
- autophagy induction (U2OS [2]; [9]): 2.146%
- autophagy induction (U2OS [2]; [10]): -5.198%
- autophagy induction (U2OS [2]; [11]): 5.742%
- autophagy induction (U2OS [2]; [12]): 6.2878%
- autophagy induction (U2OS [2]; [13]): 4.231%
- autophagy induction (U2OS [2]; [14]): -3.951%

Compound: O=C1N/C(=N/c2ccccc2F)S/C1=C\c1ccc(C(=O)O)cc1
- autophagy induction (TERT-RPE1; [3]): -10.0262%
- autophagy induction (TERT-RPE1; [4]): -9.4115%
- autophagy induction (TERT-RPE1; [5]): -12.0012%
- autophagy induction (TERT-RPE1; [6]): -17.4269%
- autophagy induction (TERT-RPE1; [7]): -2.621%
- autophagy induction (TERT-RPE1; [8]): -7.325%
- autophagy induction (TERT-RPE1; [9]): -9.455%
- autophagy induction (TERT-RPE1; [10]): -13.9846%
- autophagy induction (TERT-RPE1; [11]): -9.926%
- autophagy induction (TERT-RPE1; [12]): -10.0998%
- autophagy induction (TERT-RPE1; [13]): -12.1834%
- autophagy induction (TERT-RPE1; [14]): -11.0664%
- autophagy induction (U2OS [1]; [3]): 1.731%
- autophagy induction (U2OS [1]; [4]): 0.03156%
- autophagy induction (U2OS [1]; [5]): -1.478%
- autophagy induction (U2OS [1]; [6]): 0.04429%
- autophagy induction (U2OS [1]; [7]): 4.489%
- autophagy induction (U2OS [1]; [8]): 0.7124%
- autophagy induction (U2OS [1]; [9]): -0.5769%
- autophagy induction (U2OS [1]; [10]): 0.3402%
- autophagy induction (U2OS [1]; [11]): -30.0859%
- autophagy induction (U2OS [1]; [12]): -13.2121%
- autophagy induction (U2OS [1]; [13]): -8.741%
- autophagy induction (U2OS [1]; [14]): -4.602%
- autophagy induction (U2OS [2]; [3]): -6.588%
- autophagy induction (U2OS [2]; [4]): -6.026%
- autophagy induction (U2OS [2]; [5]): -1.651%
- autophagy induction (U2OS [2]; [6]): -8.214%
- autophagy induction (U2OS [2]; [7]): 1.845%
- autophagy induction (U2OS [2]; [8]): 3.048%
- autophagy induction (U2OS [2]; [9]): 0.4254%
- autophagy induction (U2OS [2]; [10]): -3.587%
- autophagy induction (U2OS [2]; [11]): 7.038%
- autophagy induction (U2OS [2]; [12]): 3.001%
- autophagy induction (U2OS [2]; [13]): 3.146%
- autophagy induction (U2OS [2]; [14]): -8.731%
